In PubChem BioAssay (NCI):
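GI50 = concentration required for 50% inhibition of growth. TGI is the concentration that stops growth completely.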

Tests used:
Assay in all cases: inhibition of tumour cell growth, NCI panel, 384-well format
SK-MEL-5 melanoma = system: SK-MEL-5 melanoma
COLO 205 colon = system: COLO 205 colon
PC-3 prostate = system: PC-3 prostate
NCI-H23 lung = system: NCI-H23 lung
A549 NSCLC = system: A549 NSCLC
T-47D breast = system: T-47D breast
LOX IMVI melanoma = system: LOX IMVI melanoma
M14 melanoma = system: M14 melanoma
KM12 colon = system: KM12 colon
MCF7 breast = system: MCF7 breast
SN12C renal = system: SN12C renal
NCI-H226 lung = system: NCI-H226 lung
OVCAR-4 ovarian = system: OVCAR-4 ovarian
MDA-MB-231 breast = system: MDA-MB-231 breast
MDA-MB-468 breast = system: MDA-MB-468 breast
RXF 393 renal = system: RXF 393 renal
HS 578T breast = system: HS 578T breast
MALME-3M melanoma = system: MALME-3M melanoma
HCT-116 colon = system: HCT-116 colon
SF-539 CNS = system: SF-539 CNS
NCI-H322M lung = system: NCI-H322M lung
HOP-92 NSCLC = system: HOP-92 NSCLC
SR leukemia = system: SR leukemia
K-562 leukemia = system: K-562 leukemia
OVCAR-5 ovarian = system: OVCAR-5 ovarian
SK-MEL-28 melanoma = system: SK-MEL-28 melanoma
HOP-62 NSCLC = system: HOP-62 NSCLC
BT-549 breast = system: BT-549 breast
UACC-257 melanoma = system: UACC-257 melanoma
MDA-MB-435 melanoma = system: MDA-MB-435 melanoma
EKVX NSCLC = system: EKVX NSCLC
NCI/ADR-RES ovarian = system: NCI/ADR-RES ovarian
CCRF-CEM leukemia = system: CCRF-CEM leukemia
A498 renal = system: A498 renal
CAKI-1 renal = system: CAKI-1 renal
SF-268 CNS = system: SF-268 CNS
HCT-15 colon = system: HCT-15 colon
SF-295 CNS = system: SF-295 CNS
UO-31 renal = system: UO-31 renal
OVCAR-8 ovarian = system: OVCAR-8 ovarian
ACHN renal = system: ACHN renal
HL-60(TB) leukemia = system: HL-60(TB) leukemia
NCI-H460 NSCLC = system: NCI-H460 NSCLC
HT29 colon = system: HT29 colon
SK-OV-3 ovarian = system: SK-OV-3 ovarian
NCI-H522 lung = system: NCI-H522 lung
HCC-2998 colon = system: HCC-2998 colon

## C[C@@H](Oc1cc(-n2cnc3ccc(CN4CCN(C)CC4)cc32)sc1C(N)=O)c1ccccc1C(F)(F)F
SK-MEL-5 melanoma
  GI50: 0.359 µM
  TGI: 1.64 µM
COLO 205 colon
  GI50: 0.256 µM
  TGI: 0.617 µM
PC-3 prostate
  GI50: 0.804 µM
  TGI: 11.4 µM
NCI-H23 lung
  GI50: 0.384 µM
  TGI: 1.68 µM
A549 NSCLC
  GI50: 0.819 µM
  TGI: 6.85 µM
T-47D breast
  GI50: 1.83 µM
  TGI: 5.23 µM
LOX IMVI melanoma
  GI50: 0.588 µM
  TGI: 1.95 µM
M14 melanoma
  GI50: 0.573 µM
  TGI: 1.86 µM
KM12 colon
  GI50: 0.296 µM
  TGI: 0.982 µM
MCF7 breast
  GI50: 0.384 µM
  TGI: 2.5 µM
SN12C renal
  GI50: 2.89 µM
  TGI: 15.4 µM
NCI-H226 lung
  GI50: 3.55 µM
  TGI: 17.8 µM
OVCAR-4 ovarian
  GI50: 1.81 µM
  TGI: 10.2 µM
MDA-MB-231 breast
  GI50: 0.679 µM
  TGI: 10.6 µM
MDA-MB-468 breast
  GI50: 0.214 µM
  TGI: 0.446 µM
RXF 393 renal
  GI50: 0.192 µM
  TGI: 0.565 µM
HS 578T breast
  GI50: 1.01 µM
  TGI: 2.58 µM
MALME-3M melanoma
  GI50: 1.15 µM
  TGI: 2.37 µM
HCT-116 colon
  GI50: 0.534 µM
  TGI: 3.04 µM
SF-539 CNS
  GI50: 0.462 µM
  TGI: 1.72 µM
NCI-H322M lung
  GI50: 1.78 µM
  TGI: 9.79 µM
HOP-92 NSCLC
  GI50: 1.57 µM
  TGI: 5.26 µM
SR leukemia
  GI50: 0.146 µM
  TGI: 0.294 µM
K-562 leukemia
  GI50: 0.307 µM
  TGI: 1.01 µM
OVCAR-5 ovarian
  GI50: 0.532 µM
  TGI: 3.76 µM
SK-MEL-28 melanoma
  GI50: 1.53 µM
  TGI: 2.94 µM
HOP-62 NSCLC
  GI50: 0.465 µM
  TGI: 2.34 µM
BT-549 breast
  GI50: 0.422 µM
  TGI: 1.91 µM
UACC-257 melanoma
  GI50: 1.15 µM
  TGI: 2.37 µM
MDA-MB-435 melanoma
  GI50: 0.244 µM
  TGI: 0.602 µM
EKVX NSCLC
  GI50: 0.734 µM
  TGI: 4.19 µM
NCI/ADR-RES ovarian
  GI50: 1.69 µM
  TGI: 3.59 µM
CCRF-CEM leukemia
  GI50: 0.18 µM
  TGI: 0.329 µM
A498 renal
  GI50: 0.871 µM
  TGI: 12.2 µM
CAKI-1 renal
  GI50: 1.63 µM
  TGI: 4.5 µM
SF-268 CNS
  GI50: 0.882 µM
  TGI: 3.64 µM
HCT-15 colon
  GI50: 0.374 µM
  TGI: 1.2 µM
SF-295 CNS
  GI50: 1.05 µM
  TGI: 9.34 µM
UO-31 renal
  GI50: 2.67 µM
  TGI: 10.3 µM
OVCAR-8 ovarian
  GI50: 0.348 µM
  TGI: 1.29 µM
ACHN renal
  GI50: 3.29 µM
  TGI: 13.8 µM
HL-60(TB) leukemia
  GI50: 0.203 µM
  TGI: 0.352 µM
NCI-H460 NSCLC
  GI50: 0.32 µM
  TGI: 0.906 µM
HT29 colon
  GI50: 0.36 µM
  TGI: 1.25 µM
SK-OV-3 ovarian
  GI50: 0.402 µM
  TGI: 2.6 µM
NCI-H522 lung
  GI50: 0.206 µM
  TGI: 0.445 µM
HCC-2998 colon
  GI50: 0.595 µM
  TGI: 1.89 µM
